From publication PMC5218480 (PLoS ONE, 2017)

Test system: MV-4-11 cells
Assay: Gene expression microarray analysis (Affymetrix PrimeView) and GSEA
Type: cell-based, human
Set-up: RFU PODN (11730768_x_at) / Fold change /veh PODN (11730768_x_at) / RFU LINC00158 (11744669_a_at) / Fold change /veh LINC00158 (11744669_a_at) / RFU DUSP10 (11751237_a_at) / Fold change /veh DUSP10 (11751237_a_at) / RFU ID3 (11757404_x_at) / Fold change /veh ID3 (11757404_x_at) / RFU PLEKHG5 (11737974_s_at) / Fold change /veh PLEKHG5 (11737974_s_at) / RFU LRRC4B (11730491_at) / Fold change /veh LRRC4B (11730491_at) / RFU GIMAP4 (11747438_a_at) / Fold change /veh GIMAP4 (11747438_a_at) / RFU KRT8 (11758183_x_at) / Fold change /veh KRT8 (11758183_x_at) / RFU CNN1 (11734310_a_at) / Fold change /veh CNN1 (11734310_a_at) / RFU VPS37D (11726825_at) / Fold change /veh VPS37D (11726825_at) / RFU C10orf10 (11716522_x_at) / Fold change /veh C10orf10 (11716522_x_at) / RFU KIR2DL2 /// KIR2DL4 /// KIR2DL5A /// KIR2DL5B /// KIR2DS1 /// KIR2DS2 /// KIR2DS3 /// KIR2DS4 /// KIR3DL3 /// KIR3DL3 /// KIR3DS1 (11738374_at) / Fold change /veh KIR2DL2 /// KIR2DL4 /// KIR2DL5A /// KIR2DL5B /// KIR2DS1 /// KIR2DS2 /// KIR2DS3 /// KIR2DS4 /// KIR3DL3 /// KIR3DL3 /// KIR3DS1 (11738374_at) / RFU C1QL1 (11718748_at) / Fold change /veh C1QL1 (11718748_at) / RFU TMPRSS4 (11747572_a_at) / Fold change /veh TMPRSS4 (11747572_a_at) / RFU HAMP (11756126_x_at) / Fold change /veh HAMP (11756126_x_at) / RFU RNFT2 (11725882_a_at) / Fold change /veh RNFT2 (11725882_a_at) / RFU NR4A2 (11747474_a_at) / Fold change /veh NR4A2 (11747474_a_at) / RFU ABCC12 (11746883_a_at) / Fold change /veh ABCC12 (11746883_a_at) / RFU TMEM136 (11760407_x_at) / Fold change /veh TMEM136 (11760407_x_at) / RFU CLDN22 /// WWC2 (11732394_at) / Fold change /veh CLDN22 /// WWC2 (11732394_at) / RFU HLA-DPB1 (11760878_x_at) / Fold change /veh HLA-DPB1 (11760878_x_at) / RFU SPINT1 (11716480_a_at) / Fold change /veh SPINT1 (11716480_a_at) / RFU GAP43 (11754022_s_at) / Fold change /veh GAP43 (11754022_s_at) / RFU A4GNT (11735810_at) / Fold change /veh A4GNT (11735810_at) / RFU PRB3 (11715151_x_at) / Fold change /veh PRB3 (11715151_x_at) / RFU TUBB4B (11761932_at) / Fold change /veh TUBB4B (11761932_at) / RFU CAPN14 (11732068_a_at) / Fold change /veh CAPN14 (11732068_a_at) / RFU TMCC2 (11721928_a_at) / Fold change /veh TMCC2 (11721928_a_at) / RFU IRGQ (11745062_a_at) / Fold change /veh IRGQ (11745062_a_at) / RFU FAM174B (11720279_a_at) / Fold change /veh FAM174B (11720279_a_at) / RFU TMPRSS4 (11748680_a_at) / Fold change /veh TMPRSS4 (11748680_a_at) / RFU FAM212B (11763350_a_at) / Fold change /veh FAM212B (11763350_a_at) / RFU PLEKHG5 (11743358_a_at) / Fold change /veh PLEKHG5 (11743358_a_at) / RFU ZSCAN30 (11745921_a_at) / Fold change /veh ZSCAN30 (11745921_a_at) / RFU CMKLR1 (11741424_a_at) / Fold change /veh CMKLR1 (11741424_a_at) / RFU LOC101060620 /// MAPK8IP1 (11723275_at) / Fold change /veh LOC101060620 /// MAPK8IP1 (11723275_at) / RFU SPTSSB (11747773_x_at) / Fold change /veh SPTSSB (11747773_x_at) / RFU PRSS12 (11739890_at) / Fold change /veh PRSS12 (11739890_at) / RFU BIN1 (11741810_x_at) / Fold change /veh BIN1 (11741810_x_at) / RFU WNT11 (11732464_a_at) / Fold change /veh WNT11 (11732464_a_at) / RFU C10orf10 (11716521_a_at) / Fold change /veh C10orf10 (11716521_a_at) / RFU C5orf56 (11738089_at) / Fold change /veh C5orf56 (11738089_at) / RFU CYB561 (11721691_x_at) / Fold change /veh CYB561 (11721691_x_at) / RFU ANKRD19P (11752326_a_at) / Fold change /veh ANKRD19P (11752326_a_at) / RFU OR2T12 /// OR2T33 /// OR2T8 (11738714_s_at) / Fold change /veh OR2T12 /// OR2T33 /// OR2T8 (11738714_s_at) / RFU VCAN (11748164_a_at) / Fold change /veh VCAN (11748164_a_at) / RFU JSRP1 (11732532_at) / Fold change /veh JSRP1 (11732532_at) / RFU KRTAP10-11 (11738290_x_at) / Fold change /veh KRTAP10-11 (11738290_x_at) / RFU MYO3A (11730013_a_at) / Fold change /veh MYO3A (11730013_a_at) / RFU EBF3 (11725865_a_at) / Fold change /veh EBF3 (11725865_a_at) / RFU CAMK2N1 (11719241_x_at) / Fold change /veh CAMK2N1 (11719241_x_at) / RFU C5orf56 (11738088_a_at) / Fold change /veh C5orf56 (11738088_a_at) / RFU OLFML3 (11715873_a_at) / Fold change /veh OLFML3 (11715873_a_at) / RFU LOC100653217 /// NTM (11731650_a_at) / Fold change /veh LOC100653217 /// NTM (11731650_a_at) / RFU MAPK11 (11762145_a_at) / Fold change /veh MAPK11 (11762145_a_at) / RFU FIZ1 (11724087_x_at) / Fold change /veh FIZ1 (11724087_x_at) / RFU OASL (11726364_x_at) / Fold change /veh OASL (11726364_x_at) / RFU SOX15 (11748057_x_at) / Fold change /veh SOX15 (11748057_x_at) / RFU CD79A (11719716_a_at) / Fold change /veh CD79A (11719716_a_at) / RFU HIST1H1D (11736915_at) / Fold change /veh HIST1H1D (11736915_at) / RFU CASKIN2 (11723855_a_at) / Fold change /veh CASKIN2 (11723855_a_at) / RFU LOC730098 (11760151_x_at) / Fold change /veh LOC730098 (11760151_x_at) / RFU OR4N2 (11742367_at) / Fold change /veh OR4N2 (11742367_at) / RFU PRRT2 (11749266_a_at) / Fold change /veh PRRT2 (11749266_a_at) / RFU SNX32 (11753110_a_at) / Fold change /veh SNX32 (11753110_a_at) / RFU CDHR5 (11726645_a_at) / Fold change /veh CDHR5 (11726645_a_at) / RFU RCAN1 (11760418_a_at) / Fold change /veh RCAN1 (11760418_a_at) / RFU FAM167A (11723789_a_at) / Fold change /veh FAM167A (11723789_a_at) / RFU FAM26E (11764081_at) / Fold change /veh FAM26E (11764081_at) / RFU ISYNA1 (11749810_s_at) / Fold change /veh ISYNA1 (11749810_s_at) / RFU ACY1 (11761880_at) / Fold change /veh ACY1 (11761880_at) / RFU 11764098_at / Fold change /veh 11764098_at / RFU SAMD14 (11745864_x_at) / Fold change /veh SAMD14 (11745864_x_at) / RFU NPB (11741838_a_at) / Fold change /veh NPB (11741838_a_at) / RFU TMPRSS6 (11731388_a_at) / Fold change /veh TMPRSS6 (11731388_a_at) / RFU KRTAP10-2 (11738614_at) / Fold change /veh KRTAP10-2 (11738614_at) / RFU ARHGAP8 /// PRR5-ARHGAP8 (11727945_x_at) / Fold change /veh ARHGAP8 /// PRR5-ARHGAP8 (11727945_x_at) / RFU KRTAP5-7 /// NADSYN1 (11734609_at) / Fold change /veh KRTAP5-7 /// NADSYN1 (11734609_at) / RFU RASL12 (11751679_a_at) / Fold change /veh RASL12 (11751679_a_at) / RFU CDKN2B (11736163_a_at) / Fold change /veh CDKN2B (11736163_a_at) / RFU PRF1 (11729649_at) / Fold change /veh PRF1 (11729649_at) / RFU, ZNF638 /// ZNF638-IT1 / Fold change vs veh, ZNF638 /// ZNF638-IT1 / RFU, PANK3 / Fold change vs veh, PANK3 / RFU, SH3YL1 / Fold change vs veh, SH3YL1 / RFU, ZEB2 / Fold change vs veh, ZEB2 / RFU, NRIP1 / Fold change vs veh, NRIP1 / RFU, PTTG1IP / Fold change vs veh, PTTG1IP / RFU, CAPN2 / Fold change vs veh, CAPN2 / RFU, MED14 / Fold change vs veh, MED14 / RFU, SNORA58 / Fold change vs veh, SNORA58 / RFU, C1orf63 / Fold change vs veh, C1orf63 / RFU, LRRFIP1 / Fold change vs veh, LRRFIP1 / RFU, NDUFAF7 / Fold change vs veh, NDUFAF7 / RFU, SLC12A2 / Fold change vs veh, SLC12A2 / RFU, IBTK / Fold change vs veh, IBTK / RFU, ESF1 / Fold change vs veh, ESF1 / Fold change vs veh, TMEM50B / RFU, TAOK1 / Fold change vs veh, TAOK1 / RFU, ACBD3 / Fold change vs veh, ACBD3 / RFU, TMA16 / Fold change vs veh, TMA16 / RFU, RWDD3 / Fold change vs veh, RWDD3 / RFU, BCAT1 / Fold change vs veh, BCAT1 / RFU, EDEM3 / Fold change vs veh, EDEM3 / RFU, TMEM33 / Fold change vs veh, TMEM33 / RFU, WDR75 / Fold change vs veh, WDR75 / RFU, AHCTF1 / Fold change vs veh, AHCTF1 / RFU, TFRC / Fold change vs veh, TFRC / RFU, ZDHHC17 / Fold change vs veh, ZDHHC17 / RFU, NOM1 / Fold change vs veh, NOM1 / RFU, ARL8B / Fold change vs veh, ARL8B / RFU, ZBTB11 / Fold change vs veh, ZBTB11 / RFU, TAMM41 / Fold change vs veh, TAMM41 / RFU, KIAA1704 /// LOC100996395 / Fold change vs veh, KIAA1704 /// LOC100996395 / RFU, ING1 / Fold change vs veh, ING1 / RFU, TRMT61B / Fold change vs veh, TRMT61B / RFU, FUBP3 / Fold change vs veh, FUBP3 / RFU, TP53 / Fold change vs veh, TP53 / RFU, TNKS2 / Fold change vs veh, TNKS2 / RFU, ZFP14 / Fold change vs veh, ZFP14 / RFU, ACTR2 / Fold change vs veh, ACTR2 / RFU, PPP3R1 / Fold change vs veh, PPP3R1 / RFU, PIK3R1 / Fold change vs veh, PIK3R1 / RFU, HNRNPA1 / Fold change vs veh, HNRNPA1 / RFU, RNF170 / Fold change vs veh, RNF170 / RFU, ZNF28 / Fold change vs veh, ZNF28 / RFU, RNGTT / Fold change vs veh, RNGTT / RFU, OGT / Fold change vs veh, OGT / RFU, BRD1 / Fold change vs veh, BRD1 / RFU, MARS / Fold change vs veh, MARS / RFU, ZNF655 / Fold change vs veh, ZNF655 / RFU, FAHD1 / Fold change vs veh, FAHD1 / RFU, BDP1 / Fold change vs veh, BDP1 / RFU, LRRCC1 / Fold change vs veh, LRRCC1 / RFU, ARID1A / Fold change vs veh, ARID1A / RFU, ZNF146 / Fold change vs veh, ZNF146 / RFU, ZNF330 / Fold change vs veh, ZNF330 / RFU, GPN3 / Fold change vs veh, GPN3 / RFU, C9orf123 / Fold change vs veh, C9orf123 / RFU, N4BP2L2 / Fold change vs veh, N4BP2L2 / RFU, ARFIP1 / Fold change vs veh, ARFIP1 / RFU, FAM179B / Fold change vs veh, FAM179B / RFU, BCL10 / Fold change vs veh, BCL10 / RFU, UHRF1BP1L / Fold change vs veh, UHRF1BP1L / RFU, BET1 / Fold change vs veh, BET1 / RFU, CNOT2 / Fold change vs veh, CNOT2 / RFU, ZNF268 / Fold change vs veh, ZNF268 / Fold change vs veh, ZNF507 / RFU, DGCR2 / Fold change vs veh, DGCR2 / RFU, WDSUB1 / Fold change vs veh, WDSUB1 / Fold change vs veh, HSP90B1 /// MIR3652 / RFU, ADSS / Fold change vs veh, ADSS / RFU, GK / Fold change vs veh, GK / RFU, ZNF148 / Fold change vs veh, ZNF148 / RFU, TAF9 / Fold change vs veh, TAF9 / RFU, SLC1A5 / Fold change vs veh, SLC1A5 / RFU, SLMO2 / Fold change vs veh, SLMO2 / RFU, ABCC4 / Fold change vs veh, ABCC4 / RFU, LOC101060439 /// RAP1B / Fold change vs veh, LOC101060439 /// RAP1B / RFU, RFX7 / Fold change vs veh, RFX7 / RFU, GTPBP10 / Fold change vs veh, GTPBP10 / RFU, CNEP1R1 / Fold change vs veh, CNEP1R1 / RFU, BIVM-ERCC5 /// ERCC5 / Fold change vs veh, BIVM-ERCC5 /// ERCC5 / RFU, ILF3 / Fold change vs veh, ILF3 / RFU 11762660_at / Fold change /veh 11762660_at / RFU VCAN (11757783_s_at) / Fold change /veh VCAN (11757783_s_at) / RFU DDX43 (11728927_at) / Fold change /veh DDX43 (11728927_at) / RFU KRT8 (11758188_x_at) / Fold change /veh KRT8 (11758188_x_at) / RFU NKD1 (11759106_at) / Fold change /veh NKD1 (11759106_at) / RFU SRD5A1 (11742802_a_at) / Fold change /veh SRD5A1 (11742802_a_at) / RFU TPSAB1 /// TPSB2 (11721975_s_at) / Fold change /veh TPSAB1 /// TPSB2 (11721975_s_at) / RFU GSTM3 (11746129_a_at) / Fold change /veh GSTM3 (11746129_a_at) / RFU IL23R (11737362_x_at) / Fold change /veh IL23R (11737362_x_at) / RFU TMEM51 (11727254_a_at) / Fold change /veh TMEM51 (11727254_a_at) / RFU PIWIL2 (11732686_x_at) / Fold change /veh PIWIL2 (11732686_x_at) / RFU ORM1 (11744905_x_at) / Fold change /veh ORM1 (11744905_x_at) / RFU CCDC152 (11743942_at) / Fold change /veh CCDC152 (11743942_at) / RFU ECM1 (11717891_a_at) / Fold change /veh ECM1 (11717891_a_at) / RFU IL23R (11748794_a_at) / Fold change /veh IL23R (11748794_a_at) / RFU TNFAIP8L3 (11732012_x_at) / Fold change /veh TNFAIP8L3 (11732012_x_at) / RFU MBOAT4 (11741988_at) / Fold change /veh MBOAT4 (11741988_at) / RFU 11764193_at / Fold change /veh 11764193_at / RFU TMEM53 (11763286_at) / Fold change /veh TMEM53 (11763286_at) / RFU MAGEB2 (11727129_at) / Fold change /veh MAGEB2 (11727129_at) / RFU TMEM200A (11744735_a_at) / Fold change /veh TMEM200A (11744735_a_at) / RFU CCDC152 (11751479_a_at) / Fold change /veh CCDC152 (11751479_a_at) / RFU FAM211A (11726209_a_at) / Fold change /veh FAM211A (11726209_a_at) / RFU RGS16 (11746705_a_at) / Fold change /veh RGS16 (11746705_a_at) / RFU VCAN (11755009_s_at) / Fold change /veh VCAN (11755009_s_at) / RFU RHOB (11743442_s_at) / Fold change /veh RHOB (11743442_s_at) / RFU RGS16 (11720943_a_at) / Fold change /veh RGS16 (11720943_a_at) / RFU RGS16 (11720944_at) / Fold change /veh RGS16 (11720944_at) / RFU, VPS4B / Fold change vs veh, VPS4B / RFU, CREB1 / Fold change vs veh, CREB1 / RFU, DNAJC13 / Fold change vs veh, DNAJC13 / RFU, GNAQ / Fold change vs veh, GNAQ / RFU, CDK5R1 / Fold change vs veh, CDK5R1 / RFU, ZRANB3 / Fold change vs veh, ZRANB3 / RFU, CUL4A / Fold change vs veh, CUL4A / RFU, CCNY / Fold change vs veh, CCNY / RFU, UFL1 / Fold change vs veh, UFL1 / RFU, COG3 / Fold change vs veh, COG3 / RFU, DIAPH2 / Fold change vs veh, DIAPH2 / RFU, SKA2 / Fold change vs veh, SKA2 / RFU, AFF3 / Fold change vs veh, AFF3 / RFU, LMF1 / Fold change vs veh, LMF1 / RFU, IPO11 / Fold change vs veh, IPO11 / RFU, DFFB / Fold change vs veh, DFFB / RFU, FOXP1 / Fold change vs veh, FOXP1 / RFU, CARD8 / Fold change vs veh, CARD8 / RFU, STRN3 / Fold change vs veh, STRN3 / RFU, ADK / Fold change vs veh, ADK / RFU, RASSF2 / Fold change vs veh, RASSF2 / RFU, WIPF1 / Fold change vs veh, WIPF1 / RFU, LARP1B / Fold change vs veh, LARP1B / RFU, RASA1 / Fold change vs veh, RASA1 / RFU, RB1 / Fold change vs veh, RB1 / RFU, PPFIA1 / Fold change vs veh, PPFIA1 / RFU, MAT2A / Fold change vs veh, MAT2A / RFU, CCT5 / Fold change vs veh, CCT5 / RFU, WDR92 / Fold change vs veh, WDR92 / RFU, CUX1 / Fold change vs veh, CUX1 / RFU, TTC7A / Fold change vs veh, TTC7A / RFU, TMEM135 / Fold change vs veh, TMEM135 / RFU, DEPTOR / Fold change vs veh, DEPTOR / RFU, CPM / Fold change vs veh, CPM / RFU, DNAJB6 / Fold change vs veh, DNAJB6 / RFU, CACNA2D3 / Fold change vs veh, CACNA2D3 / RFU, DTX4 / Fold change vs veh, DTX4 / RFU, TFCP2 / Fold change vs veh, TFCP2 / RFU, GMCL1 /// GMCL1P1 / Fold change vs veh, GMCL1 /// GMCL1P1 / RFU, AEBP2 / Fold change vs veh, AEBP2 / RFU, SNHG1 /// SNORD22 /// SNORD25 /// SNORD26 /// SNORD27 /// SNORD28 /// SNORD29 /// SNORD31 / Fold change vs veh, SNHG1 /// SNORD22 /// SNORD25 /// SNORD26 /// SNORD27 /// SNORD28 /// SNORD29 /// SNORD31 / Fold change (Aza/veh), C12orf56 (ProbeSet 11735607_a_at) / Fold change (ACY-1035/veh), C12orf56 (ProbeSet 11735607_a_at) / Fold change (Aza/veh), FGFR1OP (ProbeSet 11751329_s_at) / Fold change (ACY-1035/veh), FGFR1OP (ProbeSet 11751329_s_at) / Fold change (Aza/veh), VPS36 (ProbeSet 11739960_a_at) / Fold change (ACY-1035/veh), VPS36 (ProbeSet 11739960_a_at) / RFU SYPL1 (11715823_x_at) / Fold change /veh SYPL1 (11715823_x_at) / RFU IGFBP7 (11715501_s_at) / Fold change /veh IGFBP7 (11715501_s_at) / RFU REEP3 (11722064_at) / Fold change /veh REEP3 (11722064_at) / RFU IGLL1 (11728026_x_at) / Fold change /veh IGLL1 (11728026_x_at): dose or concentration left out as unconfirmed
Details: MV-4-11 cells, 48 hours

## Nc1ccc(-c2cccs2)cc1NC(=O)c1ccc2c(c1)cc(C1CC1)n2CCN1CCOCC1 [ACY-1035]
  Fold change /veh PLEKHG5 (11743358_a_at): 1.02
